From publication PMC11468294, “Peptide Amphiphiles as Biodegradable Adjuvants for Efficient Retroviral Gene Delivery” (Advanced Healthcare Materials, 2023)
“Also recorded” adds a separate entry of the source. Where a SMILES comes first, the peptide text is derived from it. The star is where a group is joined. Palmitoyl = CCCCCCCCCCCCCCCC(=O)*

Assays:
[1] = Microscopic aggregation (fluorescence / confocal microscopy, derived count rate); format: physicochemical; details: for formation of µm-sized aggregates (in words): fibrils preformed at 1 mg mL-1 in PBS, ThT or Proteostat stain, widefield or confocal microscopy, derived count rate > 1000 kcps as criterion; for assembly in water (fluorescence microscopy): incubated 1 d in pure MilliQ water, ThT stain
HeLa cells = assay: Confocal microscopy degradation study with PA1-3 and HeLa cells; format: in vitro ADME; details: for degradation of aggregates > 10 µm^2 over 3 days: HeLa cells, 4 µg peptide (20 µg mL-1) added to 40,000 cells, 37°C, 30 min vs 3 d, Proteostat stain, confocal microscopy
Description: Confocal laser scanning microscopy and degradation study with PA1‐3 and HeLa cells: HeLa cells were seeded one day prior to conducting the assay (40000/well) in an 8‐well IBIDI slide. 4 µL of the preformed peptide fibrils (1 mg mL^−1) were diluted with 4 µL Proteostat (Enzo Life Science, 1 µL stock in 999 µL PBS) and incubated for 10 min and further diluted with medium to receive a final peptide concentration of 20 µg mL^−1. The nucleus of the HeLa cells was stained with Hoechst 33 342 (NucBlue, Thermo Fisher Scientific). The peptide solution was transferred to the HeLa cells and incubated for 30 min at 37°C before washing three times with PBS. The interaction of fibril clusters with cells was monitored after 30 min incubation time on a Stellaris 8 confocal laser scanning microscope (Leica) equipped with a 20x air objective and laser excitation wavelengths of 405 nm (Hoechst) and 561 nm (Proteostat). For the evaluation of aggregate degradation, the samples were further incubated at 37°C for 3 d and analyzed without any additional washing step. The evaluation of aggregate size and number was conducted by analyzing Proteostat stained aggregates via the 3D objects counter function of ImageJ 1.53f51 for 3 individual measurements (area 581.25 µm × 581.25 µm). […] The number of aggregates larger than 10 µm^2 were counted via the 3D objects counter function of ImageJ 1.53f51. The mean number and standard deviations were determined by averaging at least three technical triplicates.

[2] = ATR-FT-IR β-sheet content; format: physicochemical; details: ATR-IR of lyophilized fibril solutions (1 mg mL-1, PBS); peak integration at 1630 cm-1 in 2nd derivative of amide I region
Description: ATR‐FT‐IR: ATR‐IR spectra acquisition and the calculation of β−sheet content were conducted according to a previous report.^[ [20] ^] Briefly, FT‐IR spectra of solid samples were recorded after lyophilization of fibril solutions using a Bruker Tensor II spectrometer equipped with a diamond crystal as ATR element with a spectral resolution of 2 cm–1, each spectrum was an average of 64 scans. The data was processed with Origin software. β−sheet amount was determined by calculating the integral of the peak at 1630 cm^−1 (β‐sheet) relative to the integral between 1650–1700 cm^−1 (native structure) from the 2nd derivative of the FT‐IR spectra.

Molecule | formation of µm-sized aggregates (in words) [1] | assembly in water (fluorescence microscopy) [1] | degradation of aggregates > 10 µm^2 over 3 days (HeLa cells) | aggregate size (large aggregates) (HeLa cells; confocal aggregate size analysis with HeLa cells) | β-sheet content [2]
CCCCCCCCCCCCCCCC(=O)N[C@@H](Cc1ccccc1)C(=O)N[C@@H](CCC(N)=O)C(=O)N[C@@H](Cc1ccccc1)C(=O)N[C@@H](CCCCN)C(=O)N[C@@H](Cc1ccccc1)C(=O)N[C@@H](CCCCN)C(=O)N[C@@H](CS)C(N)=O [PA2] (Palmitoyl-FQFKFKC-NH2) | micrometer‐sized clusters of fibrils were formed; also recorded: high aggregation; also recorded: form µm‐sized aggregates | distinct fibrils | 52% | > 50 µm^2 | 59%
C16-VVVAAAKKK-NH2 [PA1] | micrometer‐sized clusters of fibrils were formed; also recorded: less aggregation; also recorded: form µm‐sized aggregates | distinct fibrils | 94% | – | 57%
